Data taken from US10509036B2, “Methods of selecting and isolating cancer stem cells” (The Regents of the University of California, priority 2014, dated 2019).

System: neuroblastoma cells (low NBDG and high NBDG)
Assay: MTS assay (CellTiter 96 AQueous cell proliferation assay), low NBDG versus high NBDG neuroblastoma cells
Assay type: cell-based, human

Q: How did the “resistance of low NBDG cells to the chemotherapy drug compared with high NBDG cells (MTS assay)” value turn out when `CC[C@]1(O)C[C@H]2CN(CCc3c([nH]c4ccccc34)[C@@](C(=O)OC)(c3cc4c(cc3OC)N(C=O)[C@H]3[C@@](O)(C(=O)OC)[C@H](OC(C)=O)[C@]5(CC)C=CCN6CC[C@]43[C@@H]65)C2)C1` [vincristine] was run?
A: The value was “more resistant”.

Q: `COc1cccc2c1C(=O)c1c(O)c3c(c(O)c1C2=O)C[C@@](O)(C(=O)CO)C[C@@H]3O[C@H]1C[C@H](N)[C@H](O)[C@H](C)O1` [doxorubicin] was tested. Which “resistance of low NBDG cells to the chemotherapy drug compared with high NBDG cells (MTS assay)” value did it give?
A: The value was “more resistant”.
